Measured values published in patent publication US11058654B2, “Compositions and methods for the treatment of hemoglobinopathies and thalassemias” (AXCELLA HEALTH INC., priority 2018, dated 2021).

How the values were obtained:
[1] = system: TNFa; experiment: LPS-induced TNFa secretion in primary human PBMC-derived macrophages (ELISA); assay type: cell-based; conditions: for effect on LPS-induced TNFa secretion: in words; for TNFa Measurements Mean (baseline subtracted): LPS
Description: (§1) Unpurified buffy coats (Research Blood Components) were carefully poured into 50 mL centrifuge tubes and diluted with room temperature Dulbecco's Phosphate Buffered Saline (dPBS) with Calcium and Magnesium (Gibco). Diluted buffy coats were further divided into four total 50 mL centrifuge tubes at 20 mL per tube. Lymphocyte Separation Medium (Corning) was carefully pipetted to the bottom of each centrifuge tube. Mixtures were centrifuged at 850× g for 32 minutes at 20° C. with 0 deceleration and acceleration.
(§2) The PBMC layer was separated from other components after centrifugation and added to new 50 mL centrifuge tube containing 25 mL dPBS. Total volume was brought up to 50 mL with dPBS and centrifuged at 600× g for 10 minutes at 20° C. with acceleration of 9, deceleration of 5. Supernatant was carefully removed from cell pellets. The cell pellets were resuspended using 10 mL dPBS. Total volume was then brought up to 50 mL using dPBS and centrifuged at 450× g for 5 min at 20° C. with acceleration of 9, deceleration of 9. The supernatant removal and cell pellet resuspension was repeated again.
(§3) The supernatant was then carefully removed from cell pellets. Cell pellets were resuspended in 10 mL dPBS without calcium or magnesium and filtered through a 70 uM cell strainer. The total PBMC number was determined using a Cellometer K2 automated cell counter. A total of 5E6 cells were saved for flow cytometric analysis. Remaining cells were centrifuged at 490× g for 5 minutes at 20° C. with acceleration of 9, deceleration of 9.
(§4) CD14+ cells were selected using EasySep™ Human CD14 Positive Selection Kit II ([…] Technologies). Cells were resuspended in cold EasySep™ Buffer ([…] Technologies) at 1×10^8 cells/mL. A total of 100 uL/mL EasySep™ Human CD14 Positive Selection Cocktail II was added to the cell suspension, mixed, and incubated at room temperature for 10 minutes. A total of 100 uL/mL RapidSpheres were added to the mixture and incubated at room temperature for 3 minutes after mixing, then RoboSep buffer was added to bring up the total volume to 10 mL. The mixture in a 15 mL tube was placed in magnet and incubated at room temperature for 3 minutes. Supernatant was discarded and 10 mL fresh EasySep™ buffer was added to 15 mL tube. The addition of RoboSep buffer, mixing, and discarding of supernatant was repeated two more times.
(§5) Negative and positive fractions were centrifuged at 490× g for 5 minutes at 20° C. with acceleration of 9, deceleration of 9, and resuspended in DMEM (Gibco) and 10% Heat Inactivated Fetal Bovine Serum (Atlanta Bio) and Penicillin/Streptomycin. Cells were counted and centrifuged again at […] for 5 minutes at 20° C. with acceleration of 9, deceleration of 9. After centrifugation, cell were resuspended in DMEM (Gibco) and 10% Heat Inactivated Fetal Bovine Serum (Atlanta Bio) and Penicillin/Streptomycin containing 500 U/mL […] and plated at 1-2×10^6 cells/mL on 10 cm tissue culture plates. Cells were kept in 37° C., 5% CO2 in between feedings/harvest.
(§6) Cells were fed every 3-4 days by removing media and unattached cells, centrifuging at 490× g for 5 minutes at 20 C with acceleration of 9, deceleration of 9, and resuspending in fresh DMEM (Gibco) and 10% Heat Inactivated Fetal Bovine Serum (Atlanta Bio) and Penicillin/Streptomycin containing GM-CSF. Resuspended cells were seeded back onto 10 cm tissue culture plates and incubated at 37° C., 5% CO2. Differentiated macrophages were used for subsequent experiments.
(§7) Primary human PMBC derived macrophages were seeded on day 0 at 3.0E4 cells per well in 96-well microplates (ThermoFisher) in Dulbecco's Modified Eagle Medium (DMEM) (Gibco) supplemented with penicillin-streptomycin (Hyclone) and 10% heat inactivated fetal bovine serum (HI-FBS) (Atlanta Bio) and incubated overnight at 37° C., 5% CO2. On day 1, cells were washed once with 150 uL per well DPBS (Gibco) and treated with 75 uL of: • a. […]

[2] = system: IL-6; experiment: LPS-induced IL-6 secretion in primary human PBMC-derived macrophages (ELISA); assay type: cell-based; conditions: for effect on LPS-induced IL-6 secretion: in words
Description: as §1, §2, §3, §4, §5, §6, §7

[3] = Plasma pharmacokinetics after oral gavage in male Sprague-Dawley rats; assay type: in vivo; design: AUC(0-t): concentration or dose not given beside the values; conditions: rat, plasma, Mean, oral gavage of RCitNacQCarLHKVS, male Sprague-Dawley rats; for AUC(0-t): read-out: AUC0-5 h; for Cmax: read-out: Cmax; for Tmax: read-out: Tmax
Description: A pharmacokinetic (PK) analysis was performed on plasma concentrations of various combinations of amino acid compounds administered by oral gavage to male Sprague-Dawley rats. Four animals were dosed with RCitNacQCarLHKVS, a test article comprising ten amino acid components: arginine, citrulline, N-acetylcysteine, glutamine, carnitine, leucine, histidine, lysine, valine, and serine (Table 19). Animals were fasted for 2 hours prior to dose administration. Plasma samples were taken immediately pre-dose and 0.5, 1, 2, 3, 4, and 5 hours post-dose.
Bioanalysis of collected plasma samples for amino acid content was performed at Axcella Health using an LC-MS method (Section 2.1). Bioanalytical data were analyzed using noncompartmental analysis with Phoenix® WinNonLin® (v8.1).
An LC/MS method utilizing HILIC chromatography and high-resolution mass spectrometry was used to quantify amino acids in rat plasma. The samples were prepared by protein precipitation and spiked with stable-labeled amino acid internal standard for each analyte. […] QCs, spiked into rat plasma, were utilized to assess the accuracy of the method.
PK parameters of test article components were determined from individual rat plasma concentration-time data by employing a noncompartmental approach using Phoenix WinNonlin® (Version 8.1) software. Nominal times were used to calculate the toxicokinetic parameters. […] This program analyzed data using the standard methods described by Gibaldi and Perrier (see M. Gibaldi and D. Perrier, Pharmacokinetics, 2nd edition, New York: Marcel-Dekker, Inc.; 1982.).

CC(=O)N[C@@H](CS)C(=O)O [N-Acetyl Cysteine, N-acetylcysteine]
effect on LPS-induced TNFa secretion ([1]; Donor 1): significantly reduced
effect on LPS-induced TNFa secretion ([1]; Donor 2): significantly reduced
effect on LPS-induced TNFa secretion ([1]; Donor 3): significantly reduced
IL-6 Measurements Mean ([2]; Donor 1, Conc. 0 X (baseline)): 0
effect on LPS-induced IL-6 secretion ([2]; Donor 1): significantly reduced
IL-6 Measurements Mean ([2]; Donor 2, Conc. 0 X (baseline)): −2.4E−15
IL-6 Measurements Mean ([2]; Donor 2, Conc. 20 X, baseline subtracted): −24.9999
effect on LPS-induced IL-6 secretion ([2]; Donor 2): significantly reduced
IL-6 Measurements Mean ([2]; Donor 3, Conc. 0 X (baseline)): −9.5E−15
effect on LPS-induced IL-6 secretion ([2]; Donor 3): significantly reduced

N=C(N)NCCC[C@H](N)C(=O)O [Arginine]
TNFa Measurements Mean (baseline subtracted) ([1]; Donor 1, Conc. 109 μM (baseline)): 0
TNFa Measurements Mean (baseline subtracted) ([1]; Donor 1, Conc. 1088 μM): −24.33
TNFa Measurements Mean (baseline subtracted) ([1]; Donor 1, Conc. 2720 μM): 5.12
TNFa Measurements Mean (baseline subtracted) ([1]; Donor 1, Conc. 5440 μM): 62.06
TNFa Measurements Mean (baseline subtracted) ([1]; Donor 2, Conc. 109 μM (baseline)): 1.42E−14
TNFa Measurements Mean (baseline subtracted) ([1]; Donor 2, Conc. 1088 μM): −12.7222
TNFa Measurements Mean (baseline subtracted) ([1]; Donor 2, Conc. 2720 μM): −3.763
TNFa Measurements Mean (baseline subtracted) ([1]; Donor 2, Conc. 5440 μM): −0.5738
TNFa Measurements Mean (baseline subtracted) ([1]; Donor 3, Conc. 109 μM (baseline)): 3.55E−15
TNFa Measurements Mean (baseline subtracted) ([1]; Donor 3, Conc. 1088 μM): 3.131
TNFa Measurements Mean (baseline subtracted) ([1]; Donor 3, Conc. 2720 μM): −0.9669
TNFa Measurements Mean (baseline subtracted) ([1]; Donor 3, Conc. 5440 μM): −1.767
AUC(0-t) [3]: 2210 µM·h
Cmax [3]: 565 µM
Tmax [3]: 82.8 min
IL-6 Measurements Mean ([2]; Donor 1, Arginine Conc. 109 μM (baseline)): 0
IL-6 Measurements Mean ([2]; Donor 1, Arginine Conc. 1088 μM, baseline subtracted): −181.36
IL-6 Measurements Mean ([2]; Donor 1, Arginine Conc. 2720 μM, baseline subtracted): −186.57
IL-6 Measurements Mean ([2]; Donor 1, Arginine Conc. 5440 μM, baseline subtracted): 357.4394
effect on LPS-induced IL-6 secretion ([2]; Donor 1): increased
IL-6 Measurements Mean ([2]; Donor 2, Arginine Conc. 109 μM (baseline)): 2.37E−15
IL-6 Measurements Mean ([2]; Donor 2, Arginine Conc. 1088 μM, baseline subtracted): −9.701
IL-6 Measurements Mean ([2]; Donor 2, Arginine Conc. 2720 μM, baseline subtracted): −13.6102
IL-6 Measurements Mean ([2]; Donor 2, Arginine Conc. 5440 μM, baseline subtracted): −12.4164
IL-6 Measurements Mean ([2]; Donor 3, Arginine Conc. 109 μM (baseline)): 0
IL-6 Measurements Mean ([2]; Donor 3, Arginine Conc. 1088 μM, baseline subtracted): 31.5786
IL-6 Measurements Mean ([2]; Donor 3, Arginine Conc. 2720 μM, baseline subtracted): −7.503
IL-6 Measurements Mean ([2]; Donor 3, Arginine Conc. 5440 μM, baseline subtracted): −6.81

NC(=O)CC[C@H](N)C(=O)O [Glutamine]
effect on LPS-induced TNFa secretion ([1]; Donor 2): increased
effect on LPS-induced TNFa secretion ([1]; Donor 3): increased
AUC(0-t) [3]: 2370 µM·h
Cmax [3]: 605 µM
Tmax [3]: 30 min
effect on LPS-induced IL-6 secretion ([2]; Donor 1): increased
effect on LPS-induced IL-6 secretion ([2]; Donor 2): increased
effect on LPS-induced IL-6 secretion ([2]; Donor 3): significantly increased
